According to ChEMBL document CHEMBL1152018, “Molecular design of novel PGI2 agonists without PG skeleton. II” (Bioorg Med Chem Lett, 1995):

Experiments:
Canis familiaris = species on record: Canis familiaris; test: Evaluated for ADP-induced antiaggregation of dog platelets; format: functional; conditions: Canis lupus familiaris
Cavia porcellus [1] = species on record: Cavia porcellus; test: Effective dose for ex vivo inhibition of platelet aggregation for four hours in guinea pigs; format: functional, organism-based
Cavia porcellus [2] = species on record: Cavia porcellus; test: Evaluated for ADP-induced antiaggregation of guinea pig platelets; format: functional
Prostacyclin receptor = Prostacyclin receptor (Homo sapiens, UniProt P43119); test: Displacement of [3H]iloprost from Prostaglandin I2 receptor of human platelets
Homo sapiens = species on record: Homo sapiens; test: Inhibitory activity against ADP-induced platelet aggregation using human platelet rich plasma at a concentration of 4 uM by functional assay

Prostacyclin receptor, sequence (P43119 whole entry): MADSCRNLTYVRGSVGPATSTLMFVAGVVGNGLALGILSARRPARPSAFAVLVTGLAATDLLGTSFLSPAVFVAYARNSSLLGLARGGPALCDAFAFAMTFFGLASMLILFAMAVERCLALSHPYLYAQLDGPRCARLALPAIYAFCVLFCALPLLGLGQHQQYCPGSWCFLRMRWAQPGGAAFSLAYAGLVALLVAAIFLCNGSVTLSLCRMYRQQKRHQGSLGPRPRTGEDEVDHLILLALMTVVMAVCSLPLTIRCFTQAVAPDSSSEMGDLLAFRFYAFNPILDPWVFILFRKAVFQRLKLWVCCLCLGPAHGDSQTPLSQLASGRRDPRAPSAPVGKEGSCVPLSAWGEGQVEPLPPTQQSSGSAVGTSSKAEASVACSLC

| SMILES | IC50 (Canis familiaris) [µM] | EC50 (Cavia porcellus [1]) [mg/kg] | IC50 (Cavia porcellus [2]) [nM] | IC50 (Prostacyclin receptor) [nM] | IC50 (Homo sapiens) [nM] |
| --- | --- | --- | --- | --- | --- |
| CCC/C(CCC1CCCc2c(OCC(=O)O)cccc21)=N\OC(c1ccccc1)c1ccccc1 (configuration not stated) | – | – | – | 2100 | 2400 |
| C/C(C[C@@H]1CCc2c(cccc2OCC(=O)O)C1)=N\OC(c1ccccc1)c1ccccc1 | – | – | – | 2200 | 1900 |
| CCC/C(C[C@H]1CCc2c(cccc2OCC(=O)O)C1)=N\OC(c1ccccc1)c1ccccc1 | – | – | – | – | 130 |
| C/C(CC1CCc2c(cccc2OCC(=O)O)C1)=N\OCc1ccccc1 (configuration not stated) | – | – | – | 5300 | 12000 |
| CCCCC[C@H](O)/C=C/[C@H]1[C@H](O)CC(=O)[C@@H]1CCCCCCC(=O)O [ALPROSTADIL] | – | – | – | 1400 | 70 |

Further lines, results first:

| IC50 (Canis familiaris) [µM] | EC50 (Cavia porcellus [1]) [mg/kg] | IC50 (Cavia porcellus [2]) [nM] | IC50 (Prostacyclin receptor) [nM] | IC50 (Homo sapiens) [nM] | SMILES |
| --- | --- | --- | --- | --- | --- |
| 7.3 | 0.82 | 1900 | 150 | – | CCC/C(CC1CCc2c(cccc2OCC(=O)O)C1)=N\OC(c1ccccc1)c1ccccc1 (configuration not stated) [AP-227] |
| – | – | – | 150 | 70 | CC/C(CC1CCc2c(cccc2OCC(=O)O)C1)=N\OC(c1ccccc1)c1ccccc1 (configuration not stated) |
| – | – | – | 220 | – | C/C(C[C@H]1CCc2c(cccc2OCC(=O)O)C1)=N\OC(c1ccccc1)c1ccccc1 |
| – | – | – | 380 | – | C/C(CC1CCc2c(cccc2OCC(=O)O)C1)=N\OC(c1ccccc1)c1ccccc1 (configuration not stated) |
